Assays:
[1] = Inhibition of Cryptosporidium parvum NMT
Cryptosporidium parvum = test: Antiparasitic activity against Cryptosporidium parvum assessed as inhibition of parasitic growth; assay type: functional, organism-based
[2] = target: T1, Glycylpeptide N-tetradecanoyltransferase 1 (Homo sapiens, UniProt P30419); test: Inhibition of human NMT1
T1 sequence (P30419 whole entry): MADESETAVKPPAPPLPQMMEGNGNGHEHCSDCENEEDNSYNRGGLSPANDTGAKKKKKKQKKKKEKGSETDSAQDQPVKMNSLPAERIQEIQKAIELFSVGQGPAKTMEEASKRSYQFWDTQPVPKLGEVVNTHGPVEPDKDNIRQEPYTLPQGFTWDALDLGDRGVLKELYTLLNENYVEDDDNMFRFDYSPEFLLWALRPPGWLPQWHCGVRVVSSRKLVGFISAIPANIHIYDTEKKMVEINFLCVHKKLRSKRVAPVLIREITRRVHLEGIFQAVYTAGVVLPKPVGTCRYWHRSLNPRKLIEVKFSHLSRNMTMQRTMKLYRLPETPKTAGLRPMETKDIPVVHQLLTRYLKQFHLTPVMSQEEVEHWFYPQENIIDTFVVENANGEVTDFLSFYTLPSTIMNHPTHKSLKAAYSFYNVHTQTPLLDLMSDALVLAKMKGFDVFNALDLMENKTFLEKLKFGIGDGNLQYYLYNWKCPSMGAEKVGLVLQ

[3] = Selectivity index, ratio of IC50 for human NMT1 to IC50 for Cryptosporidium parvum NMT

Row | SMILES | IC50 [1] [µM] | EC50 (Cryptosporidium parvum) [µM] | IC50 [2] [µM] | Ratio IC50 [3]
1 | CCN(c1ccccc1)S(=O)(=O)c1ccc(Cl)c(C(=O)Nc2ccccc2N2CC(C)(C)CC2=O)c1 | > 125 | > 20 |  | 
2 | CCN(c1ccccc1)S(=O)(=O)c1ccc(Cl)c(C(=O)Nc2ccccc2N2CCN(C)C2=O)c1 | 2.5 | 6.9 | 11.4 | 4.6
3 | CCN(c1ccccc1)S(=O)(=O)c1ccc(Cl)c(C(=O)Nc2ccccc2N2CCCC2=O)c1 | 3.5 | 3.5 |  | 1.4
4 | CCN(c1ccccc1)S(=O)(=O)c1ccc(Cl)c(C(=O)Nc2ccccc2N2CCN(CC3CC3)C2=O)c1 | 52.8 | > 20 | > 125 | > 2
5 | CCN(c1ccccc1)S(=O)(=O)c1ccc(Cl)c(C(=O)Nc2ccccc2N2C(=O)CC(C)(C)C2=O)c1 | > 125 | > 20 |  | 
6 | CCN(c1ccccc1)S(=O)(=O)c1ccc(Cl)c(C(=O)Nc2ccccc2N2CC(CC)(CC)CC2=O)c1 | > 125 | > 20 |  | 
7 | CCN1CCN(c2ccccc2NC(=O)c2cc(S(=O)(=O)N(CC)c3ccccc3)ccc2Cl)C1=O | 2.8 | 16.4 | > 125 | > 44
8 | CCN(c1ccccc1)S(=O)(=O)c1ccc(Cl)c(C(=O)Nc2ccccc2N2CCN(C(C)C)C2=O)c1 | > 125 | > 20 |  | 
9 | CCN(c1ccccc1)S(=O)(=O)c1ccc(Cl)c(C(=O)Nc2ccccc2N2CCC(C)(C)C2=O)c1 | 13.8 | > 20 | > 125 | > 9
